# According to PubChem BioAssay (NCI):
#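 96-well plates; 48 h exposure; 5 concentrations. Endpoints by linear interpolation between flanking doses. Not reached: highest tested concentration assigned. TGI: concentration producing complete growth inhibition.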
# Columns and labels:
# Assay in all cases: inhibition of tumour cell growth, NCI panel, 48 h
# 786-0 renal = tested on: 786-0 renal
# A498 renal = tested on: A498 renal
# A549 NSCLC = tested on: A549 NSCLC
# ACHN renal = tested on: ACHN renal
# BT-549 breast = tested on: BT-549 breast
# CAKI-1 renal = tested on: CAKI-1 renal
# CCRF-CEM leukemia = tested on: CCRF-CEM leukemia
# COLO 205 colon = tested on: COLO 205 colon
# DU-145 prostate = tested on: DU-145 prostate
# EKVX NSCLC = tested on: EKVX NSCLC
# HCC-2998 colon = tested on: HCC-2998 colon
# HCT-116 colon = tested on: HCT-116 colon
# HCT-15 colon = tested on: HCT-15 colon
# HL-60(TB) leukemia = tested on: HL-60(TB) leukemia
# HOP-62 NSCLC = tested on: HOP-62 NSCLC
# HOP-92 NSCLC = tested on: HOP-92 NSCLC
# HS 578T breast = tested on: HS 578T breast
# HT29 colon = tested on: HT29 colon
# IGROV1 ovarian = tested on: IGROV1 ovarian
# K-562 leukemia = tested on: K-562 leukemia
# KM12 colon = tested on: KM12 colon
# LOX IMVI melanoma = tested on: LOX IMVI melanoma
# M14 melanoma = tested on: M14 melanoma
# MALME-3M melanoma = tested on: MALME-3M melanoma
# MCF7 breast = tested on: MCF7 breast
# MDA-MB-231 breast = tested on: MDA-MB-231 breast
# MDA-MB-435 = tested on: MDA-MB-435
# MDA-N = tested on: MDA-N
# MOLT-4 leukemia = tested on: MOLT-4 leukemia
# NCI-H226 lung = tested on: NCI-H226 lung
# NCI-H23 lung = tested on: NCI-H23 lung
# NCI-H460 lung = tested on: NCI-H460 lung
# NCI-H522 lung = tested on: NCI-H522 lung
# NCI/ADR-RES ovarian = tested on: NCI/ADR-RES ovarian
# OVCAR-3 ovarian = tested on: OVCAR-3 ovarian
# OVCAR-4 ovarian = tested on: OVCAR-4 ovarian
# OVCAR-5 ovarian = tested on: OVCAR-5 ovarian
# OVCAR-8 ovarian = tested on: OVCAR-8 ovarian
# PC-3 prostate = tested on: PC-3 prostate
# RPMI-8226 leukemia = tested on: RPMI-8226 leukemia
# SF-268 CNS = tested on: SF-268 CNS
# SF-295 CNS = tested on: SF-295 CNS
# SF-539 CNS = tested on: SF-539 CNS
# SK-MEL-2 melanoma = tested on: SK-MEL-2 melanoma
# SK-MEL-28 melanoma = tested on: SK-MEL-28 melanoma
# SK-MEL-5 melanoma = tested on: SK-MEL-5 melanoma
# SK-OV-3 ovarian = tested on: SK-OV-3 ovarian
# SN12C renal = tested on: SN12C renal
# SNB-19 CNS = tested on: SNB-19 CNS
# SNB-75 CNS = tested on: SNB-75 CNS
# SR leukemia = tested on: SR leukemia
# SW-620 colon = tested on: SW-620 colon
# T-47D breast = tested on: T-47D breast
# TK-10 renal = tested on: TK-10 renal
# U251 CNS = tested on: U251 CNS
# UACC-257 melanoma = tested on: UACC-257 melanoma
# UACC-62 melanoma = tested on: UACC-62 melanoma
# UO-31 renal = tested on: UO-31 renal
structure (smiles),measurement,setting,value
Cc1cc2nc3c(C#N)c(C)c(CCCl)c(Cl)n3c2cc1C,TGI,786-0 renal,3.69 µM
same,TGI,A498 renal,7.64 µM
same,TGI,A549 NSCLC,17.7 µM
same,TGI,ACHN renal,11.1 µM
same,TGI,BT-549 breast,7.15 µM
same,TGI,CAKI-1 renal,9.43 µM
same,TGI,CCRF-CEM leukemia,7.38 µM
same,TGI,COLO 205 colon,14.8 µM
same,TGI,DU-145 prostate,13.6 µM
same,TGI,EKVX NSCLC,35.6 µM
same,TGI,HCC-2998 colon,6.23 µM
same,TGI,HCT-116 colon,3.06 µM
same,TGI,HCT-15 colon,3.85 µM
same,TGI,HL-60(TB) leukemia,5.57 µM
same,TGI,HOP-62 NSCLC,4.64 µM
same,TGI,HOP-92 NSCLC,4.76 µM
same,TGI,HS 578T breast,> 29.6 µM
same,TGI,HT29 colon,5.91 µM
same,TGI,IGROV1 ovarian,3.93 µM
same,TGI,K-562 leukemia,6.63 µM
same,TGI,KM12 colon,14.4 µM
same,TGI,LOX IMVI melanoma,2.88 µM
same,TGI,M14 melanoma,6.16 µM
same,TGI,MALME-3M melanoma,9.28 µM
same,TGI,MCF7 breast,8.64 µM
same,TGI,MDA-MB-231 breast,3.66 µM
same,TGI,MDA-MB-435,4.92 µM
same,TGI,MDA-N,6.12 µM
same,TGI,MOLT-4 leukemia,6.95 µM
same,TGI,NCI-H226 lung,8.17 µM
same,TGI,NCI-H23 lung,5.29 µM
same,TGI,NCI-H460 lung,> 36.6 µM
same,TGI,NCI-H522 lung,> 100 µM
same,TGI,NCI/ADR-RES ovarian,21.5 µM
same,TGI,OVCAR-3 ovarian,3.56 µM
same,TGI,OVCAR-4 ovarian,16.6 µM
same,TGI,OVCAR-5 ovarian,5.86 µM
same,TGI,OVCAR-8 ovarian,7.55 µM
same,TGI,PC-3 prostate,12.4 µM
same,TGI,RPMI-8226 leukemia,5.49 µM
same,TGI,SF-268 CNS,3.76 µM
same,TGI,SF-295 CNS,13.8 µM
same,TGI,SF-539 CNS,5.09 µM
same,TGI,SK-MEL-2 melanoma,3.99 µM
same,TGI,SK-MEL-28 melanoma,15.5 µM
same,TGI,SK-MEL-5 melanoma,8.82 µM
same,TGI,SK-OV-3 ovarian,> 56.6 µM
same,TGI,SN12C renal,3.63 µM
same,TGI,SNB-19 CNS,36.3 µM
same,TGI,SNB-75 CNS,4.63 µM
same,TGI,SR leukemia,5.81 µM
same,TGI,SW-620 colon,5.79 µM
same,TGI,T-47D breast,8.9 µM
same,TGI,TK-10 renal,4.24 µM
same,TGI,U251 CNS,> 60.9 µM
same,TGI,UACC-257 melanoma,5.02 µM
same,TGI,UACC-62 melanoma,4.12 µM
same,TGI,UO-31 renal,7.25 µM
